Results from article PMC5218480 (PLoS ONE, 2017).

System: MV-4-11 cells
Experiment: Gene expression microarray analysis (Affymetrix PrimeView) and GSEA
Assay type: cell-based, human
Set-up: RFU PODN (11730768_x_at) / Fold change /veh PODN (11730768_x_at) / RFU LINC00158 (11744669_a_at) / Fold change /veh LINC00158 (11744669_a_at) / RFU DUSP10 (11751237_a_at) / Fold change /veh DUSP10 (11751237_a_at) / RFU ID3 (11757404_x_at) / Fold change /veh ID3 (11757404_x_at) / RFU PLEKHG5 (11737974_s_at) / Fold change /veh PLEKHG5 (11737974_s_at) / RFU LRRC4B (11730491_at) / Fold change /veh LRRC4B (11730491_at) / RFU GIMAP4 (11747438_a_at) / Fold change /veh GIMAP4 (11747438_a_at) / RFU KRT8 (11758183_x_at) / Fold change /veh KRT8 (11758183_x_at) / RFU CNN1 (11734310_a_at) / Fold change /veh CNN1 (11734310_a_at) / RFU VPS37D (11726825_at) / Fold change /veh VPS37D (11726825_at) / RFU C10orf10 (11716522_x_at) / Fold change /veh C10orf10 (11716522_x_at) / RFU KIR2DL2 /// KIR2DL4 /// KIR2DL5A /// KIR2DL5B /// KIR2DS1 /// KIR2DS2 /// KIR2DS3 /// KIR2DS4 /// KIR3DL3 /// KIR3DL3 /// KIR3DS1 (11738374_at) / Fold change /veh KIR2DL2 /// KIR2DL4 /// KIR2DL5A /// KIR2DL5B /// KIR2DS1 /// KIR2DS2 /// KIR2DS3 /// KIR2DS4 /// KIR3DL3 /// KIR3DL3 /// KIR3DS1 (11738374_at) / RFU C1QL1 (11718748_at) / Fold change /veh C1QL1 (11718748_at) / RFU TMPRSS4 (11747572_a_at) / Fold change /veh TMPRSS4 (11747572_a_at) / RFU HAMP (11756126_x_at) / Fold change /veh HAMP (11756126_x_at) / RFU RNFT2 (11725882_a_at) / Fold change /veh RNFT2 (11725882_a_at) / RFU NR4A2 (11747474_a_at) / Fold change /veh NR4A2 (11747474_a_at) / RFU ABCC12 (11746883_a_at) / Fold change /veh ABCC12 (11746883_a_at) / RFU TMEM136 (11760407_x_at) / Fold change /veh TMEM136 (11760407_x_at) / RFU CLDN22 /// WWC2 (11732394_at) / Fold change /veh CLDN22 /// WWC2 (11732394_at) / RFU HLA-DPB1 (11760878_x_at) / Fold change /veh HLA-DPB1 (11760878_x_at) / RFU SPINT1 (11716480_a_at) / Fold change /veh SPINT1 (11716480_a_at) / RFU GAP43 (11754022_s_at) / Fold change /veh GAP43 (11754022_s_at) / RFU A4GNT (11735810_at) / Fold change /veh A4GNT (11735810_at) / RFU PRB3 (11715151_x_at) / Fold change /veh PRB3 (11715151_x_at) / RFU TUBB4B (11761932_at) / Fold change /veh TUBB4B (11761932_at) / RFU CAPN14 (11732068_a_at) / Fold change /veh CAPN14 (11732068_a_at) / RFU TMCC2 (11721928_a_at) / Fold change /veh TMCC2 (11721928_a_at) / RFU IRGQ (11745062_a_at) / Fold change /veh IRGQ (11745062_a_at) / RFU FAM174B (11720279_a_at) / Fold change /veh FAM174B (11720279_a_at) / RFU TMPRSS4 (11748680_a_at) / Fold change /veh TMPRSS4 (11748680_a_at) / RFU FAM212B (11763350_a_at) / Fold change /veh FAM212B (11763350_a_at) / RFU PLEKHG5 (11743358_a_at) / Fold change /veh PLEKHG5 (11743358_a_at) / RFU ZSCAN30 (11745921_a_at) / Fold change /veh ZSCAN30 (11745921_a_at) / RFU CMKLR1 (11741424_a_at) / Fold change /veh CMKLR1 (11741424_a_at) / RFU LOC101060620 /// MAPK8IP1 (11723275_at) / Fold change /veh LOC101060620 /// MAPK8IP1 (11723275_at) / RFU SPTSSB (11747773_x_at) / Fold change /veh SPTSSB (11747773_x_at) / RFU PRSS12 (11739890_at) / Fold change /veh PRSS12 (11739890_at) / RFU BIN1 (11741810_x_at) / Fold change /veh BIN1 (11741810_x_at) / RFU WNT11 (11732464_a_at) / Fold change /veh WNT11 (11732464_a_at) / RFU C10orf10 (11716521_a_at) / Fold change /veh C10orf10 (11716521_a_at) / RFU C5orf56 (11738089_at) / Fold change /veh C5orf56 (11738089_at) / RFU CYB561 (11721691_x_at) / Fold change /veh CYB561 (11721691_x_at) / RFU ANKRD19P (11752326_a_at) / Fold change /veh ANKRD19P (11752326_a_at) / RFU OR2T12 /// OR2T33 /// OR2T8 (11738714_s_at) / Fold change /veh OR2T12 /// OR2T33 /// OR2T8 (11738714_s_at) / RFU VCAN (11748164_a_at) / Fold change /veh VCAN (11748164_a_at) / RFU JSRP1 (11732532_at) / Fold change /veh JSRP1 (11732532_at) / RFU KRTAP10-11 (11738290_x_at) / Fold change /veh KRTAP10-11 (11738290_x_at) / RFU MYO3A (11730013_a_at) / Fold change /veh MYO3A (11730013_a_at) / RFU EBF3 (11725865_a_at) / Fold change /veh EBF3 (11725865_a_at) / RFU CAMK2N1 (11719241_x_at) / Fold change /veh CAMK2N1 (11719241_x_at) / RFU C5orf56 (11738088_a_at) / Fold change /veh C5orf56 (11738088_a_at) / RFU OLFML3 (11715873_a_at) / Fold change /veh OLFML3 (11715873_a_at) / RFU LOC100653217 /// NTM (11731650_a_at) / Fold change /veh LOC100653217 /// NTM (11731650_a_at) / RFU MAPK11 (11762145_a_at) / Fold change /veh MAPK11 (11762145_a_at) / RFU FIZ1 (11724087_x_at) / Fold change /veh FIZ1 (11724087_x_at) / RFU OASL (11726364_x_at) / Fold change /veh OASL (11726364_x_at) / RFU SOX15 (11748057_x_at) / Fold change /veh SOX15 (11748057_x_at) / RFU CD79A (11719716_a_at) / Fold change /veh CD79A (11719716_a_at) / RFU HIST1H1D (11736915_at) / Fold change /veh HIST1H1D (11736915_at) / RFU CASKIN2 (11723855_a_at) / Fold change /veh CASKIN2 (11723855_a_at) / RFU LOC730098 (11760151_x_at) / Fold change /veh LOC730098 (11760151_x_at) / RFU OR4N2 (11742367_at) / Fold change /veh OR4N2 (11742367_at) / RFU PRRT2 (11749266_a_at) / Fold change /veh PRRT2 (11749266_a_at) / RFU SNX32 (11753110_a_at) / Fold change /veh SNX32 (11753110_a_at) / RFU CDHR5 (11726645_a_at) / Fold change /veh CDHR5 (11726645_a_at) / RFU RCAN1 (11760418_a_at) / Fold change /veh RCAN1 (11760418_a_at) / RFU FAM167A (11723789_a_at) / Fold change /veh FAM167A (11723789_a_at) / RFU FAM26E (11764081_at) / Fold change /veh FAM26E (11764081_at) / RFU ISYNA1 (11749810_s_at) / Fold change /veh ISYNA1 (11749810_s_at) / RFU ACY1 (11761880_at) / Fold change /veh ACY1 (11761880_at) / RFU 11764098_at / Fold change /veh 11764098_at / RFU SAMD14 (11745864_x_at) / Fold change /veh SAMD14 (11745864_x_at) / RFU NPB (11741838_a_at) / Fold change /veh NPB (11741838_a_at) / RFU TMPRSS6 (11731388_a_at) / Fold change /veh TMPRSS6 (11731388_a_at) / RFU KRTAP10-2 (11738614_at) / Fold change /veh KRTAP10-2 (11738614_at) / RFU ARHGAP8 /// PRR5-ARHGAP8 (11727945_x_at) / Fold change /veh ARHGAP8 /// PRR5-ARHGAP8 (11727945_x_at) / RFU KRTAP5-7 /// NADSYN1 (11734609_at) / Fold change /veh KRTAP5-7 /// NADSYN1 (11734609_at) / RFU RASL12 (11751679_a_at) / Fold change /veh RASL12 (11751679_a_at) / RFU CDKN2B (11736163_a_at) / Fold change /veh CDKN2B (11736163_a_at) / RFU PRF1 (11729649_at) / Fold change /veh PRF1 (11729649_at) / RFU, ZNF638 /// ZNF638-IT1 / Fold change vs veh, ZNF638 /// ZNF638-IT1 / RFU, PANK3 / Fold change vs veh, PANK3 / RFU, SH3YL1 / Fold change vs veh, SH3YL1 / RFU, ZEB2 / Fold change vs veh, ZEB2 / RFU, NRIP1 / Fold change vs veh, NRIP1 / RFU, PTTG1IP / Fold change vs veh, PTTG1IP / RFU, CAPN2 / Fold change vs veh, CAPN2 / RFU, MED14 / Fold change vs veh, MED14 / RFU, SNORA58 / Fold change vs veh, SNORA58 / RFU, C1orf63 / Fold change vs veh, C1orf63 / RFU, LRRFIP1 / Fold change vs veh, LRRFIP1 / RFU, NDUFAF7 / Fold change vs veh, NDUFAF7 / RFU, SLC12A2 / Fold change vs veh, SLC12A2 / RFU, IBTK / Fold change vs veh, IBTK / RFU, ESF1 / Fold change vs veh, ESF1 / Fold change vs veh, TMEM50B / RFU, TAOK1 / Fold change vs veh, TAOK1 / RFU, ACBD3 / Fold change vs veh, ACBD3 / RFU, TMA16 / Fold change vs veh, TMA16 / RFU, RWDD3 / Fold change vs veh, RWDD3 / RFU, BCAT1 / Fold change vs veh, BCAT1 / RFU, EDEM3 / Fold change vs veh, EDEM3 / RFU, TMEM33 / Fold change vs veh, TMEM33 / RFU, WDR75 / Fold change vs veh, WDR75 / RFU, AHCTF1 / Fold change vs veh, AHCTF1 / RFU, TFRC / Fold change vs veh, TFRC / RFU, ZDHHC17 / Fold change vs veh, ZDHHC17 / RFU, NOM1 / Fold change vs veh, NOM1 / RFU, ARL8B / Fold change vs veh, ARL8B / RFU, ZBTB11 / Fold change vs veh, ZBTB11 / RFU, TAMM41 / Fold change vs veh, TAMM41 / RFU, KIAA1704 /// LOC100996395 / Fold change vs veh, KIAA1704 /// LOC100996395 / RFU, ING1 / Fold change vs veh, ING1 / RFU, TRMT61B / Fold change vs veh, TRMT61B / RFU, FUBP3 / Fold change vs veh, FUBP3 / RFU, TP53 / Fold change vs veh, TP53 / RFU, TNKS2 / Fold change vs veh, TNKS2 / RFU, ZFP14 / Fold change vs veh, ZFP14 / RFU, ACTR2 / Fold change vs veh, ACTR2 / RFU, PPP3R1 / Fold change vs veh, PPP3R1 / RFU, PIK3R1 / Fold change vs veh, PIK3R1 / RFU, HNRNPA1 / Fold change vs veh, HNRNPA1 / RFU, RNF170 / Fold change vs veh, RNF170 / RFU, ZNF28 / Fold change vs veh, ZNF28 / RFU, RNGTT / Fold change vs veh, RNGTT / RFU, OGT / Fold change vs veh, OGT / RFU, BRD1 / Fold change vs veh, BRD1 / RFU, MARS / Fold change vs veh, MARS / RFU, ZNF655 / Fold change vs veh, ZNF655 / RFU, FAHD1 / Fold change vs veh, FAHD1 / RFU, BDP1 / Fold change vs veh, BDP1 / RFU, LRRCC1 / Fold change vs veh, LRRCC1 / RFU, ARID1A / Fold change vs veh, ARID1A / RFU, ZNF146 / Fold change vs veh, ZNF146 / RFU, ZNF330 / Fold change vs veh, ZNF330 / RFU, GPN3 / Fold change vs veh, GPN3 / RFU, C9orf123 / Fold change vs veh, C9orf123 / RFU, N4BP2L2 / Fold change vs veh, N4BP2L2 / RFU, ARFIP1 / Fold change vs veh, ARFIP1 / RFU, FAM179B / Fold change vs veh, FAM179B / RFU, BCL10 / Fold change vs veh, BCL10 / RFU, UHRF1BP1L / Fold change vs veh, UHRF1BP1L / RFU, BET1 / Fold change vs veh, BET1 / RFU, CNOT2 / Fold change vs veh, CNOT2 / RFU, ZNF268 / Fold change vs veh, ZNF268 / Fold change vs veh, ZNF507 / RFU, DGCR2 / Fold change vs veh, DGCR2 / RFU, WDSUB1 / Fold change vs veh, WDSUB1 / Fold change vs veh, HSP90B1 /// MIR3652 / RFU, ADSS / Fold change vs veh, ADSS / RFU, GK / Fold change vs veh, GK / RFU, ZNF148 / Fold change vs veh, ZNF148 / RFU, TAF9 / Fold change vs veh, TAF9 / RFU, SLC1A5 / Fold change vs veh, SLC1A5 / RFU, SLMO2 / Fold change vs veh, SLMO2 / RFU, ABCC4 / Fold change vs veh, ABCC4 / RFU, LOC101060439 /// RAP1B / Fold change vs veh, LOC101060439 /// RAP1B / RFU, RFX7 / Fold change vs veh, RFX7 / RFU, GTPBP10 / Fold change vs veh, GTPBP10 / RFU, CNEP1R1 / Fold change vs veh, CNEP1R1 / RFU, BIVM-ERCC5 /// ERCC5 / Fold change vs veh, BIVM-ERCC5 /// ERCC5 / RFU, ILF3 / Fold change vs veh, ILF3 / RFU 11762660_at / Fold change /veh 11762660_at / RFU VCAN (11757783_s_at) / Fold change /veh VCAN (11757783_s_at) / RFU DDX43 (11728927_at) / Fold change /veh DDX43 (11728927_at) / RFU KRT8 (11758188_x_at) / Fold change /veh KRT8 (11758188_x_at) / RFU NKD1 (11759106_at) / Fold change /veh NKD1 (11759106_at) / RFU SRD5A1 (11742802_a_at) / Fold change /veh SRD5A1 (11742802_a_at) / RFU TPSAB1 /// TPSB2 (11721975_s_at) / Fold change /veh TPSAB1 /// TPSB2 (11721975_s_at) / RFU GSTM3 (11746129_a_at) / Fold change /veh GSTM3 (11746129_a_at) / RFU IL23R (11737362_x_at) / Fold change /veh IL23R (11737362_x_at) / RFU TMEM51 (11727254_a_at) / Fold change /veh TMEM51 (11727254_a_at) / RFU PIWIL2 (11732686_x_at) / Fold change /veh PIWIL2 (11732686_x_at) / RFU ORM1 (11744905_x_at) / Fold change /veh ORM1 (11744905_x_at) / RFU CCDC152 (11743942_at) / Fold change /veh CCDC152 (11743942_at) / RFU ECM1 (11717891_a_at) / Fold change /veh ECM1 (11717891_a_at) / RFU IL23R (11748794_a_at) / Fold change /veh IL23R (11748794_a_at) / RFU TNFAIP8L3 (11732012_x_at) / Fold change /veh TNFAIP8L3 (11732012_x_at) / RFU MBOAT4 (11741988_at) / Fold change /veh MBOAT4 (11741988_at) / RFU 11764193_at / Fold change /veh 11764193_at / RFU TMEM53 (11763286_at) / Fold change /veh TMEM53 (11763286_at) / RFU MAGEB2 (11727129_at) / Fold change /veh MAGEB2 (11727129_at) / RFU TMEM200A (11744735_a_at) / Fold change /veh TMEM200A (11744735_a_at) / RFU CCDC152 (11751479_a_at) / Fold change /veh CCDC152 (11751479_a_at) / RFU FAM211A (11726209_a_at) / Fold change /veh FAM211A (11726209_a_at) / RFU RGS16 (11746705_a_at) / Fold change /veh RGS16 (11746705_a_at) / RFU VCAN (11755009_s_at) / Fold change /veh VCAN (11755009_s_at) / RFU RHOB (11743442_s_at) / Fold change /veh RHOB (11743442_s_at) / RFU RGS16 (11720943_a_at) / Fold change /veh RGS16 (11720943_a_at) / RFU RGS16 (11720944_at) / Fold change /veh RGS16 (11720944_at) / RFU, VPS4B / Fold change vs veh, VPS4B / RFU, CREB1 / Fold change vs veh, CREB1 / RFU, DNAJC13 / Fold change vs veh, DNAJC13 / RFU, GNAQ / Fold change vs veh, GNAQ / RFU, CDK5R1 / Fold change vs veh, CDK5R1 / RFU, ZRANB3 / Fold change vs veh, ZRANB3 / RFU, CUL4A / Fold change vs veh, CUL4A / RFU, CCNY / Fold change vs veh, CCNY / RFU, UFL1 / Fold change vs veh, UFL1 / RFU, COG3 / Fold change vs veh, COG3 / RFU, DIAPH2 / Fold change vs veh, DIAPH2 / RFU, SKA2 / Fold change vs veh, SKA2 / RFU, AFF3 / Fold change vs veh, AFF3 / RFU, LMF1 / Fold change vs veh, LMF1 / RFU, IPO11 / Fold change vs veh, IPO11 / RFU, DFFB / Fold change vs veh, DFFB / RFU, FOXP1 / Fold change vs veh, FOXP1 / RFU, CARD8 / Fold change vs veh, CARD8 / RFU, STRN3 / Fold change vs veh, STRN3 / RFU, ADK / Fold change vs veh, ADK / RFU, RASSF2 / Fold change vs veh, RASSF2 / RFU, WIPF1 / Fold change vs veh, WIPF1 / RFU, LARP1B / Fold change vs veh, LARP1B / RFU, RASA1 / Fold change vs veh, RASA1 / RFU, RB1 / Fold change vs veh, RB1 / RFU, PPFIA1 / Fold change vs veh, PPFIA1 / RFU, MAT2A / Fold change vs veh, MAT2A / RFU, CCT5 / Fold change vs veh, CCT5 / RFU, WDR92 / Fold change vs veh, WDR92 / RFU, CUX1 / Fold change vs veh, CUX1 / RFU, TTC7A / Fold change vs veh, TTC7A / RFU, TMEM135 / Fold change vs veh, TMEM135 / RFU, DEPTOR / Fold change vs veh, DEPTOR / RFU, CPM / Fold change vs veh, CPM / RFU, DNAJB6 / Fold change vs veh, DNAJB6 / RFU, CACNA2D3 / Fold change vs veh, CACNA2D3 / RFU, DTX4 / Fold change vs veh, DTX4 / RFU, TFCP2 / Fold change vs veh, TFCP2 / RFU, GMCL1 /// GMCL1P1 / Fold change vs veh, GMCL1 /// GMCL1P1 / RFU, AEBP2 / Fold change vs veh, AEBP2 / RFU, SNHG1 /// SNORD22 /// SNORD25 /// SNORD26 /// SNORD27 /// SNORD28 /// SNORD29 /// SNORD31 / Fold change vs veh, SNHG1 /// SNORD22 /// SNORD25 /// SNORD26 /// SNORD27 /// SNORD28 /// SNORD29 /// SNORD31 / Fold change (Aza/veh), C12orf56 (ProbeSet 11735607_a_at) / Fold change (ACY-1035/veh), C12orf56 (ProbeSet 11735607_a_at) / Fold change (Aza/veh), FGFR1OP (ProbeSet 11751329_s_at) / Fold change (ACY-1035/veh), FGFR1OP (ProbeSet 11751329_s_at) / Fold change (Aza/veh), VPS36 (ProbeSet 11739960_a_at) / Fold change (ACY-1035/veh), VPS36 (ProbeSet 11739960_a_at) / RFU SYPL1 (11715823_x_at) / Fold change /veh SYPL1 (11715823_x_at) / RFU IGFBP7 (11715501_s_at) / Fold change /veh IGFBP7 (11715501_s_at) / RFU REEP3 (11722064_at) / Fold change /veh REEP3 (11722064_at) / RFU IGLL1 (11728026_x_at) / Fold change /veh IGLL1 (11728026_x_at): dose or concentration left out as unconfirmed
Conditions: ProbeSet 11723141_at; LIST B

## Nc1ncn([C@@H]2O[C@H](CO)[C@@H](O)[C@H]2O)c(=O)n1 [azacitidine]
  Fold change vs veh, ZBTB11: 0.93
